Here are results for 3 compounds from ChEMBL document CHEMBL1125986, “()-2-amino-2-thiazoline-4-ethanoic acid; a novel, specific GABAA receptor agonist” (Bioorg Med Chem Lett, 1991).

For one test, the species on record is Rattus norvegicus. Description: Tested for inhibition of CA1 population spike in rat hippocampal slice by electrophysiological experiment. The class given is functional. The following applies: Hippocampus.
The target of test [1] is GABA-A receptor; anion channel (Rattus norvegicus) (UniProt O09028+P15431+P18506+P18508+P19969+P20236+P23574+P23576+P28471+P28473+P30191+P62813+P63079+P63138+Q91ZM7+Q9ES14). Description: Enhanced [3H]benzodiazepine binding in rat cortical membranes at 100 uM. The class given is cell membranes.
The target in test [2] is GABA-A receptor; anion channel. Description: Effective concentration for stimulation of [3H]diazepam binding to rat cortical membranes. The class given is functional, cell membranes, Membrane.
The target in test [3] is GABA-A receptor; anion channel. The experiment in a line: Inhibition of [3H]-GABA binding to GABA-A receptor in rat cerebral cortex homogenates. Format: tissue-based.

For the compound `NC1=NC(CC(=O)O)CS1` (centres undefined), the EC50 in the test filed under Rattus norvegicus is 28.3 µM; in test [2] it was 3.4 µM. The Activity in test [1] was found to be 142%. This compound yielded an IC50 in test [3] of 0.5 µM.
`Oc1noc2c1CCNC2` [GABOXADOL] gave an EC50 in the test filed under Rattus norvegicus of 55 µM.
Take `O=C(O)C1=CCNCC1` [ISOGUVACINE]: the results for the EC50 (in the test listed under Rattus norvegicus; in test [2]) were 13 µM and 3.1 µM, respectively. Further, in test [1], the Activity is 156%. In test [3], this compound came in with an IC50 of 0.49 µM.

What is called EC50 is the midpoint of the concentration-response curve. A high value points to a need for much substance. The term IC50 denotes the midpoint of a concentration-inhibition curve.
